According to US20080271210A1, “Oryza Sativa Lectin-Like Receptor Kinase 1 (Oslrk1), a Gene Involved in Plant Development” (Temasek Life Sciences Laboratory National University of …, priority 2004, published 2008):

How the values were obtained:
[1] = test system: Oslrk1 mutant seeds and seedlings; experiment: Germination and growth of Oslrk1 mutant seeds in galactose/mannose containing media; type: in vivo, Oryza sativa
Source text: (§1) The altered expression of the Oslrk1 by different sugars described above led us to study the response of the mutant to these monosaccharides and sucrose. The WT and the mutant seeds were germinated and grown in Gal, Man, Glu, Fm along with Suc at different concentrations (ranging from 0.1% to 1%) and Suc alone containing medium as a control. The following parameters were taken into account during observation: the shoot length, the number and the length of adventitious roots and the germination rate. […] Out of these three sugars tested, Man was selected as an example as its inhibitory effect was similar in seeds and seedlings of WT and mutant as shown in FIGS. 10A and B. The seed germination was severely affected by Man.
(§2) At 1.0% of the Gal, the shoot length decreased by half in the mutant, whereas only by 15% in the WT seedlings. […] Apart from this, the germination rate of the WT seeds dropped to 85% whereas in the mutant it dropped to 30%.
(§3) Germination of WT and mutant seeds in galactose/mannose containing media. WT and mutant seeds were germinated separately on MS medium containing 0.8% agar and 1% sucrose. In addition, D(+)galactose/D(+/−)mannose was added in different concentrations (0.1, 0.2, 0.5, and 1.0%) along with a control (MS with 1% of sucrose). At 14 days after germination, the observations for adventitious root number and length (cm), shoot length (cm) and germination rate (%) were recorded.

[2] = test system: Oslrk1 gene; experiment: Northern-blot of Oslrk1 transcript in WT seedlings treated with sugars; type: in vivo, Oryza sativa; conditions: sugars 175 mM, 48 hours, Mannitol as osmotic control
Procedure: Lectins are known as carbohydrate-binding proteins that specifically recognize diverse sugar structures (Vijayan and Chandra, 1999). […] Five different sugars: glucose (Glu), sucrose (Suc), fructose (Fm), Gal and Man were used for this study along with Mannitol as an osmotic control (Methods). Northern-blot hybridizations were carried out on the total RNA isolated from treated seedlings.
RNA Isolation and Northern-blot Analysis. RNA was isolated from different organs of rice plant at different developmental stages (roots of 10-14 days old seedlings and 2 months old plants, 10-14 days old seedlings, young and mature leaves, panicles at the flowering stage and calli) using a RNeasy Plant mini kit (Qiagen,). […] For the control of RNA quantity, DIG-probe corresponding to rice Actin1 gene was synthesized using the following primers: […]
The RT-PCRs and Northern blots were repeated at least thrice and similar results were obtained. The quantification of the intensity of the hybridization signals was performed using Quantity ONE 4.5.0 software in Gel doc XR documentation system (Bio-Rad Laboratories, Inc., USA). The level of actual expression was calculated as a ratio of intensity of specific signal (Oslrk1 3′UTR probe) to the intensity of signal of positive control (rice Act1). […]

[3] = test system: Oslrk14; experiment: RT-PCR of Oslrks in treated 2 week-old seedlings; type: in vivo, Oryza sativa; conditions: treated vs control
Procedure: (§4) RT-PCRs were carried out on RNA samples isolated from 2 week-old seedlings treated with various sugar (FIG. 13), hormone (FIG. 14), and abiotic stresses (FIG. 15) using primers designated to either 3′ or 5′ Untranslated Regions (UTRs) of the 15 Oslrks found in Table 2. For each Oslrk two lanes in the gel are found, the first lane is the control and the second one treatment samples.
(§5) Table 3 provides a summary of all the above referenced data on the Oslrks, showing the RT-PCR results of various treatments, including sugar, hormone and abiotic stress and northern blot results on various tissues of rice plant grown in normal conditions, and the ESTs, or cDNAs availability in the database. In the table, “I” represents induced expression and “R” represents repressed expression.

[4] = test system: Oslrk10; experiment: RT-PCR of Oslrks in treated 2 week-old seedlings; type: in vivo, Oryza sativa; conditions: treated vs control
Procedure: as §4, §5

[5] = test system: Oslrk4; experiment: RT-PCR of Oslrks in treated 2 week-old seedlings; type: in vivo, Oryza sativa; conditions: treated vs control
Procedure: as §4, §5

[6] = test system: Oslrk11; experiment: RT-PCR of Oslrks in treated 2 week-old seedlings; type: in vivo, Oryza sativa; conditions: treated vs control
Procedure: as §4, §5

[7] = test system: Oslrk9; experiment: RT-PCR of Oslrks in treated 2 week-old seedlings; type: in vivo, Oryza sativa; conditions: treated vs control
Procedure: as §4, §5

[8] = test system: Oslrk8; experiment: RT-PCR of Oslrks in treated 2 week-old seedlings; type: in vivo, Oryza sativa; conditions: treated vs control
Procedure: as §4, §5

[9] = test system: Oslrk2; experiment: RT-PCR of Oslrks in treated 2 week-old seedlings; type: in vivo, Oryza sativa; conditions: treated vs control
Procedure: as §4, §5

[10] = test system: Oslrk5; experiment: RT-PCR of Oslrks in treated 2 week-old seedlings; type: in vivo, Oryza sativa; conditions: treated vs control
Procedure: as §4, §5

[11] = test system: WT seeds and seedlings; experiment: Germination and growth of WT seeds in galactose/mannose containing media; type: in vivo, Oryza sativa
Source text: as §1, §2, §3

[12] = test system: Oslrk15; experiment: RT-PCR of Oslrks in treated 2 week-old seedlings; type: in vivo, Oryza sativa; conditions: treated vs control
Procedure: as §4, §5

[13] = test system: Oslrk1 gene; experiment: Northern-blot of Oslrk1 transcript in WT seedlings treated with hormones and SA; type: in vivo, Oryza sativa
Source text: Differential Regulation of Oslrk1 Gene Expression by Hormones. Receptor-like kinases were postulated to be involved in signal transduction events as they perceive a signal via a ligand-binding extracellular domain and transmit it through the serine/threonine kinase domain into the cytosol (Shiu and Bleecker, 2001). In order to know possible factors influencing the Oslrk1 gene regulation, we analyzed promoter of the Oslrk1 (1.5 kb) for the presence of cis-acting elements using the program PlantCARE (Lescot et al., 2002). Three TGAGC motifs observed in MeJA inducible genes were found in promoter of the Oslrk1 at the positions −186, −657 and −1190. Apart from these, three GA3 inducible motifs (P-box-CCTTxt) −101, −206 and −740 bp upstream of the Oslrk1 ORF were located. In addition, five salicylic acid inducible motifs (TCA-elementcAGAAa/ga) at the positions of −321, −601, −604, −855 and −1135 were detected. The presence of MeJA, GA and SA responsive cis-elements in the Oslrk1 promoter indicated possible regulatory roles of these factors. The promoter analysis led us to study the effect of different hormones and compounds on the Oslrk1 transcription. The WT seeds were germinated for […] then seedlings were transferred to the medium containing one of the following chemicals: […], MeJA, GA3 or ABA at concentration 100 uM and SA (5 mM) for 24 hours (Materials and Methods). The total RNA isolated from the untreated and treated seedlings were used in Northern-blot hybridization using 3′ UTR of the Oslrk1 gene as a probe. The treatment with GA3 and SA repressed the Oslrk1 gene expression (FIG. 8A) by 2.5 and 3.3 times respectively. […] In order to confirm the level of induction of the Oslrk1 gene by MeJA over time, in another series of experiments, a time course was performed after hormone treatment. Seven day old seedlings were sprayed with 100 uM of MeJA solution and they were harvested in 1, 2, 4, 6, 8, and 12 hours.
RNA Isolation and Northern-blot Analysis. RNA was isolated from different organs of rice plant at different developmental stages (roots of 10-14 days old seedlings and 2 months old plants, 10-14 days old seedlings, young and mature leaves, panicles at the flowering stage and calli) using a RNeasy Plant mini kit (Qiagen,). The RNA (10 ug) was fractionated on a 1.2% denaturating formaldehyde agarose gel and transferred onto a Hybond-N^+ membrane (Amersham). The bolts were hybridized with dogoxigenin (DIG)-labeled probes in DIG Easy Hyb solution (Roche) at 50° C. After hybridization, membranes were washed twice with 2×SSC and 0.1% SDS for 15 min, then twice with 0.5×SSC and 0.1% SDS for 15 min at 68° C. Detection was carried out according to manufacturer using DIG Wash and Block Buffer set and chemiluminescent substrate CDP Star™ (Roche). DIG-labelled probe corresponded to 3′UTR and lectin domain of Oslrk1 was used. For the control of RNA quantity, DIG-probe corresponding to rice Actin1 gene was synthesized using the following primers: […]
The RT-PCRs and Northern blots were repeated at least thrice and similar results were obtained. The quantification of the intensity of the hybridization signals was performed using Quantity ONE 4.5.0 software in Gel doc XR documentation system (Bio-Rad Laboratories, Inc., USA). The level of actual expression was calculated as a ratio of intensity of specific signal (Oslrk1 3′UTR probe) to the intensity of signal of positive control (rice Act1).
Treatment of WT Seedlings with Hormones and Sugars. Two week old WT seedlings were transferred to MS medium containing 100 μM of different hormones, such as Indole 3-Acetic Acid (IAA), Abscisic acid (ABA), Methyl Jasmonate (MeJA), or Gibbrellic Acid (GA3) and 5 mM of Salicylic Acid (SA), and were grown for 24 hours under normal day/light conditions. Total RNA was extracted from root of the seedlings and whole seedlings. […]

[14] = test system: adventitious roots; conditions: rice, Moons et al., 1997; cited from earlier work
[15] = test system: Oslrk1 mutant seedlings; experiment: Growth of Oslrk1 mutant seedlings in MeJA or GA3 containing medium; type: in vivo, Oryza sativa
Procedure: (§6) In order to study the effect of phytohormones on the Oslrk1 mutant, seeds were grown in medium containing different concentrations of either MeJA ([…]) (FIG. 9A) or GA3 (0.5, 1, 5 and 10 μm) (data not shown) along with WT as a control The number and length of adventitious roots, number of lateral roots and shoot length were measured. […] In the WT seedlings the number of the lateral roots was increased at 5 uM and decreased by at 10 uM.
(§7) The adventitious root length of WT increased by 50% at 10 uM concentration of GA3, but it was not altered in the mutant (data not shown).
(§8) Plant Growth Conditions. Surface sterilized rice seeds were germinated and grown in cell culture containers (Phytatray II Sigma cell culture, USA) on 0.8% agar MS medium (Murashige and Skoog medium, Sigma., St. Louis Mo., USA) containing 1% of Suc for 2 weeks under 16/8 hours photoperiod. All chemicals used for the various treatments were purchased from Sigma.
(§9) Growth of WT and Mutant Seedlings in MeJA Containing Medium WT and mutant seeds were germinated and grown in MS medium (1% Suc) containing different concentrations of MeJA (1 μM, 5 μM, and 10 μM) for two weeks. No MeJA was added in the control. The number and length (cm) of adventitious roots as well as the number of lateral roots were measured.

[16] = test system: WT seedlings; experiment: Growth of WT seedlings in MeJA or GA3 containing medium; type: in vivo, Oryza sativa
Procedure: as §6, §7, §8, §9

[17] = seedlings sprayed with 100 uM, time course 1-12 hours

For `O=C[C@H](O)[C@@H](O)[C@@H](O)[C@H](O)CO` [Gal, galactose], the “length of adventitious roots” value ([1]; Oslrk1 mutant, 1.0% Gal) was “severe reduction”, the “number of the adventitious roots reduced by” value ([1]; Oslrk1 mutant, 1.0% Gal) was 85% and the “shoot length decreased by” value ([1]; Oslrk1 mutant, 1.0% Gal) was “half”. The germination rate ([1]; Oslrk1 mutant, Gal (1.0%)) was 30%, the “behavior of the mutant compared with the WT upon treatment” value ([1]; sugar 0.1% to 1% along with Suc) was “differential response” and the “Oslrk1 expression in response to sugars” value [2] was “Repression”. For the same compound, the “Oslrk14 expression by RT-PCR, Sh” value [3] was “I”, the “Oslrk10 expression by RT-PCR, Sh” value ([4]; Sh) was “I” and the “Oslrk4 expression by RT-PCR, Sh” value [5] was “I”. The “Oslrk11 expression by RT-PCR, Rt” value ([6]; Rt) was “I”, the “Oslrk11 expression by RT-PCR, Sh” value ([6]; Sh) was “R” and the “Oslrk9 expression by RT-PCR, Sh” value [7] was “I”. For the same compound, the “Oslrk8 expression by RT-PCR, Sh” value ([8]; Sh) was “I”, the “Oslrk2 expression by RT-PCR, Rt” value ([9]; Rt) was “I” and the “Oslrk2 expression by RT-PCR, Sh” value ([9]; Sh) was “R”. For the same compound, the “Oslrk5 expression by RT-PCR, Rt” value [10] was “I”, the “Oslrk5 expression by RT-PCR, Sh” value [10] was “I” and the “length of adventitious roots” value ([11]; 1.0% Gal) was “reduced”. The “number of the adventitious roots” value ([11]; 1.0% Gal) was “more or less same”, the “shoot length decreased by” value ([11]; 1.0% Gal) was 15% and the germination rate ([11]; Gal (1.0%)) was 85%.

In the case of `O=C(O)Cc1c[nH]c2ccccc12` [IAA, Indole 3-Acetic Acid], the “Oslrk10 expression by RT-PCR, Rt” value ([4]; Rt) is reported as “I”, the “Oslrk15 expression by RT-PCR, Rt” value [12] is reported as “I” and the “Oslrk4 expression by RT-PCR, Rt” value [5] is reported as “I”. The “Oslrk8 expression by RT-PCR, Rt” value ([8]; Rt) was “I”, the “Oslrk5 expression by RT-PCR, Rt” value [10] was “I” and the “effect on Oslrk1 transcription” value ([13]; 100 uM, 24 hours, WT seedlings) was “no significant effect”.

In the case of `CC/C=C\CC1C(=O)CCC1CC(=O)OC` (stereo not shown) [MeJA, Methyl Jasmonate], the “concentration at which development of adventitious roots was inhibited” value [14] is given as “more than 3 μM”, the “number of adventitious roots” value ([15]; MeJA 10 uM) is given as “opposite to the effect observed at 5 uM” and the “number of lateral roots” value ([15]; MeJA 1, 5, 10 uM) is given as “no significant changes”. For the same compound, the shoot length ([15]; MeJA 1, 5, 10 uM, two weeks) was “decreased”, the “number of adventitious roots” value ([15]; MeJA up to 5 uM) was “gradually increased” and the “length of adventitious roots” value ([15]; MeJA up to 10 uM) was “not reduced significantly”. The “Oslrk4 expression by RT-PCR, Rt” value [5] was “I”, the “Oslrk4 expression by RT-PCR, Sh” value [5] was “R” and the “Oslrk5 expression by RT-PCR, Rt” value [10] was “I”. The “Oslrk5 expression by RT-PCR, Sh” value [10] was “R”, the “Oslrk1 transcript, intensity of the hybridization signal increased by” value ([13]; 100 uM, 24 hours, WT seedlings, compared to the control) was 3.2 times and the “maximum induction of Oslrk1 expression relative to untreated sample” value [13, 17] was “approximately 3 times”. The “time of maximum Oslrk1 induction” value [13, 17] was 8 h, the “number of the lateral roots” value ([16]; MeJA 5 uM) was “increased” and the “number of adventitious roots” value ([16]; MeJA 10 uM) was “opposite to the effect observed at 5 uM”. The “number of the lateral roots” value ([16]; MeJA 10 uM) was “decreased”, the “reduction in length of adventitious roots” value ([16]; MeJA 10 uM) was “approximately 75%” and the shoot length ([16]; MeJA 1, 5, 10 uM, two weeks) was “decreased”. The “number of adventitious roots” value ([16]; MeJA up to 5 uM) was “gradually increased”.
